In patent US12661338B2, “Heterocyclic compounds as modulators of beta-catenin / TCF4 interaction” (AGENCY FOR SCIENCE, TECHNOLOGY AND RESEARCH, priority 2019, dated 2026):
Read-outs that look alike come from different tables or passages of the source.

Experiments:
Assay type in all cases: cell-based
[1] = test system: Wnt signalling (TOPFlash reporter, STF cells); assay: Wnt STF TOPFlash reporter dose response (Wnt3A-stimulated)
Procedure: (§1) Wnt STF reporter cells (HEK 293 cells stably transfected with TOPFlash reporter) and STF3A reporter cells (STF cells with constitutive secretion of Wnt3A) were kind gifts from David Virshup (Duke-NUS Graduate Medical School, Singapore). HCT116, DLD-1, and SW480 cell lines were obtained from ATCC. The Hippo pathway TEAD reporter (cat. #60618) and Myc signalling pathway reporter (cat. #60520) cells lines were purchased from BPS Bioscience, Inc.
(§2) The Wnt STF reporter cells were seeded as 20,000 cells in 100 μL culture medium per well in 96-well plates (Corning cat. #3903, Falcon cat. #353072). The next day, 5-fold dilutions of the compounds in DMSO were added to the cells at a final concentration of 1% DMSO. The cells were also stimulated with 500 ng/mL recombinant human Wnt3A (RnD systems, cat. #5036-WN-010). After 24 hr incubation, the viability of the cells was determined with cell counting kit-8 (CCK-8, Dojindo cat. #CK04) cell viability reagent according to the manufacturer's protocol while the TOPFlash reporter activity was determined with Steady-Glo luciferase reagent.
(§3) The average signal from DMSO treated wells was calculated for each plate, and the signal from each treatment well was normalized against the average DMSO signal from the respective plate. The normalized values were plotted against the concentrations tested using GraphPad Prism 5, and the EC50 values were determined through either three- or four-parameter nonlinear regression.

[2] = test system: STF cells; assay: Viability (toxicity) of STF reporter cells, CCK-8; settings: Table 3; STF reporter cell line
Procedure: as §2, §3

[3] = test system: Wnt signalling (TOPFlash reporter, STF3A cells); assay: Wnt STF3A TOPFlash reporter dose response (constitutive Wnt3A)
Procedure: as §1
as §2, with “STF3A” for “STF”, “DMSO.” for “DMSO. The cells were also stimulated with 500 ng/mL recombinant human Wnt3A (RnD systems, cat. #5036-WN-010).”
as §3

[4] = test system: STF3A cells; assay: Viability (toxicity) of STF3A reporter cells, CCK-8; settings: Table 3; STF3A reporter cell line
Procedure: as §2, with “STF3A” for “STF”, “DMSO.” for “DMSO. The cells were also stimulated with 500 ng/mL recombinant human Wnt3A (RnD systems, cat. #5036-WN-010).”
as §3

[5] = test system: Wnt target genes in HCT116 CRC cells; assay: Expression of beta-catenin (CTNNB1) and Wnt target genes in HCT116 CRC cells
Procedure: The effects of the GB1874 analogues were tested on the expression of Wnt target genes in HCT116 CRC cells.

[6] = test system: HCT116 cells; assay: Proliferation assay (CellTiter-Glo); settings: 10 μM daily
Procedure: HCT 116 cells were seeded as 3,000 cells in 100 μL growth medium per well in 96-well plates (Corning cat. #3903) and allowed to attached overnight. Cells were then treated continuously with compounds at a final concentration of 10 μM, 0.1% DMSO, for 4 days with daily medium change. Cell proliferation each day was determined using CellTiter-Glo luminescent cell viability assay (Promega cat. #G7573) according to the manufacturer's protocol.

[7] = test system: CRC1707; assay: Viability of primary patient-derived colorectal cancer cell line
[8] = test system: CRC1671; assay: as above
[9] = test system: CRC1414; assay: as above
[10] = test system: CRC2001; assay: as above
[11] = test system: CRC948; assay: as above
[12] = test system: CRC1850; assay: as above; settings: CRC1850, Liver Met
[13] = test system: CRC2440; assay: as above
[14] = test system: CRC2423; assay: as above
[15] = test system: CRC1775; assay: as above
[16] = test system: CRC2413; assay: as above
[17] = test system: CRC2367; assay: as above
[18] = test system: CRC1846; assay: as above
[19] = test system: CRC1837; assay: as above; settings: CRC1837, Liver Met
[20] = test system: CRC1489; assay: as above
[21] = test system: CRC2255; assay: as above
[22] = test system: CRC1258; assay: as above; settings: CRC1258, Liver Met
[23] = test system: CRC1177; assay: as above
[24] = test system: CRC1463; assay: as above
[25] = test system: DLD-1 cells; assay: Dose response viability of CRC cells (CellTiter-Glo); settings: Homo sapiens, 24 hr
Procedure: (§4) HCT116, DLD-1, and SW480 cells were seeded as 5,000 cells in 100 μL growth medium per well in 96-well plates (Corning cat. #3903). The next day, 5-fold dilutions of the compounds in DMSO were added to the cells at a final concentration of 1% DMSO. After 24 hr incubation, the viability of the cells was determined with CellTiter-Glo luminescent cell viability reagent (Promega cat. #G7573) according to the manufacturer's protocol.
as §3

[26] = test system: SW480 cells; assay: as above; settings: Homo sapiens, 24 hr
Procedure: as §4, §3

[27] = test system: HCT116 cells; assay: as above; settings: Homo sapiens, HCT-116, 24 hr
Procedure: as §4, §3

[28] = test system: Myc reporter (Luc)-HCT116 cells; assay: Myc signalling reporter dose response; settings: Homo sapiens, HCT-116, 24 hr
Procedure: (§5) The Myc reporter (Luc)-HCT116 cells were seeded as 25,000 cells in 100 μL assay medium per well in 96-well plates (Corning cat. #3903, Falcon cat. #353072). The assay medium consists of the growth medium without G-418. The next day, 4-fold dilutions of the compounds in DMSO were added to the cells at a final concentration of 1% DMSO. After 24 hr incubation, the viability of the cells was determined with PrestoBlue cell viability reagent while the luciferase reporter activity was determined with Steady-Glo luciferase reagent.
as §3

[29] = test system: Hippo pathway TEAD reporter cells; assay: Hippo signalling TEAD reporter dose response; settings: 24 hr, activation of the Hippo pathway (decrease of reporter signal)
Procedure: as §5, with “Hippo TEAD” for “Myc”, “reporter” for “reporter (Luc)-HCT116”, “100,000” for “25,000”, “5-fold” for “4-fold”, “CCK-8” for “PrestoBlue”
as §3

[30] = Table 3, STF reporter cell line, read-out: STF Inhibition IC50
[31] = Table 3, STF3A reporter cell line, read-out: STF3A Inhibition IC50

Row | IC50 [1, 30] [µM] | IC50 [3, 31] [µM] | SMILES | IC50 [2] [µM] | IC50 [4] [µM] | beta-catenin (CTNNB1) gene expression [5] | expression of Wnt target genes AXIN2, BIRC5, BMP4, CCND1 [5] | further results
1 | 28 | 1.2 | Cc1ccccc1OCc1nnc(SCCSc2nnc(COc3ccccc3C)n2Cc2ccccc2)n1Cc1ccccc1 [GB1874A] | > 100 | > 100 | – | – | –
2 | 48 | > 100 | O=C(CSc1nnc(Cc2ccccc2)n1Cc1ccco1)NC1CCCC1 [GB1874B] | > 100 | > 100 | – | – | –
3 | 7.6 | 46 | CC1CCCC(C)N1C(=O)CSc1nnc(COc2ccccc2)n1Cc1ccccc1 (stereo not drawn) [GB1874C] | 76 | 78 | lesser effect | potently inhibit Wnt target genes | –
4 | 21 | 21 | CCOc1ccc(C(=O)CSc2nnc(COc3ccccc3)n2Cc2ccccc2)cc1 [GB1874D] | > 100 | 25 | – | – | –
5 | 12 | 16 | CCOC(=O)C(C)(C)Sc1nnc(COc2ccccc2)n1Cc1ccccc1 [GB1874E] | 71 | 100 | lesser effect | potently inhibit Wnt target genes | –
6 | 5.4 | 10 | Cc1ccc(OCc2nnc(SCC(=O)c3ccc(-c4ccccc4)cc3)n2Cc2ccco2)cc1 [GB1874F] | 100 | > 100 | lesser effect | potently inhibit Wnt target genes | IC50 ([1]; unit M, read-out: STF IC50): 5.4 µM
7 | 3.9 | 6.7 | CCc1ccc(OCc2nnc(SC(C)C(=O)C3C4CC5CC(C4)CC3C5)n2Cc2ccccc2)cc1 (stereo not drawn) [GB1874G] | > 100 | > 100 | lesser effect | potently inhibit Wnt target genes | IC50 ([1]; unit M, read-out: STF IC50): 3.9 µM
8 | 5 | 11 | CCc1ccc(OCc2nnc(SC3CCCCC3=O)n2C(C)c2ccccc2)cc1 (stereo not drawn) [GB1874H] | 49 | 46 | lesser effect | potently inhibit Wnt target genes | –
9 | – | – | Cc1ccc2nc(NC(=O)CSc3nc4c(c(=O)n3-c3ccccc3)SCC4)sc2c1 [IWP-2] | – | – | – | – | growth of HCT116 cells [6]: less effective at inhibiting the growth of HCT116 cells
10 | – | – | Oc1nc(-c2ccc(C(F)(F)F)cc2)nc2c1CSCC2 [XAV939, reference compound] | – | – | – | – | EC50 [7]: 135 µM; EC50 [8]: > 250 µM; EC50 [9]: > 250 µM; EC50 [10]: > 250 µM; EC50 [11]: > 250 µM; EC50 [12]: 208 µM; EC50 [13]: 75 µM; EC50 [14]: 250 µM; EC50 [15]: > 250 µM; EC50 [16]: 200 µM; EC50 [17]: > 250 µM; EC50 [18]: 239 µM; EC50 [19]: > 250 µM; EC50 [20]: 105 µM; growth of HCT116 cells [6]: less effective at inhibiting the growth of HCT116 cells; EC50 [21]: > 250 µM; EC50 [22]: 70 µM; EC50 [23]: 250 µM; EC50 [24]: 250 µM

Row | SMILES | IC50 [1, 30] [µM] | IC50 [3, 31] [µM] | IC50 [2] [µM] | IC50 [4] [µM] | beta-catenin (CTNNB1) gene expression [5] | expression of Wnt target genes AXIN2, BIRC5, BMP4, CCND1 [5] | further results
11 | CCc1ccc(-c2nc(CSCC(=O)NCCc3ccccc3)c(C)o2)cc1 [iCRT3, reference compound] | 11 | 42 | 88 | 74 | lesser effect | potently inhibit Wnt target genes | EC50 [25]: 48 µM; EC50 [26]: 64 µM; EC50 [27]: 39 µM; IC50 [28]: 50 µM; IC50 ([1]; Table 1, STF reporter cells, 500 ng/mL Wnt3A, 24 hr, read-out: IC50 Wnt (STF)): 27 µM; IC50 Hippo (activation) [29]: activated; IC50 ([29]; read-out: IC50 Hippo (activation)): 1.6 µM; IC50 ([3]; Table 1, STF3A reporter cells, 24 hr, read-out: IC50 Wnt (STF3A)): 64 µM
